Laboratory results: patent US20110159479A1, “GENETIC POLYMORPHISMS IN THE CYTOCHROME P450 GENE WITH CLOPIDOGREL RESISTANCE” (Industry-University Cooperation Foundation Yonsei University, priority 2009, published 2011)
One block for each compound: values may come before it.

Legend:
[1] = VerifyNow P2Y12 platelet-function assay in CAD patients with drug-eluting stents on clopidogrel; type: in vivo, human
Source text: (§1) From October 2006 to July 2007, 450 consecutive patients who underwent successful percutaneous coronary intervention (PCI) with drug-eluting stents (DES) were randomly assigned to treatment with dual anti-platelet regimens (aspirin plus clopidogrel, n=225) or triple antiplatelet regimens (aspirin plus clopidogrel plus cilostazol, n=225). Inclusion criteria were: symptomatic coronary artery disease (CAD) or documented myocardial ischemia (by treadmill exercise testing or sestamibi scan); angiographic evidence of 50% diameter stenosis and post procedure Thromobolysis In Myocardial Infarction (TIMI) flow grade 3. Exclusion criteria were: contraindication to antiplatelet agents; previous allergy or intolerance of aspirin or clopidogrel; treatment with warfarin; active bleeding; known platelet dysfunction; abnormal platelet count (<100,000/mm^3). Patients received a 300 mg loading dose of clopidogrel at least 12 hours before the stenting. Stents were deployed according to standard techniques. The maintenance dose for each antiplatelet agent was 100 mg once a day for aspirin, 75 mg once a day for clopidogrel, and 100 mg twice a day for cilostazol. Among the enrolled patients, 387 patients were analyzed for clopidogrel resistance by VerifyNow P2Y12 system (Accumetrics, San Diego, Calif.), and blood sampling for genetic analysis.
(§2) The VerifyNow P2Y12 system is a rapid platelet-function, cartridge based assay designed to directly measure the effects of clopidogrel on the P2Y12 receptor. Results are expressed as P2Y12 reaction units (PRUs) and percentage inhibition. PRU reports the amount of P2Y12 receptor mediated aggregation.
(§3) Values were expressed as mean±SD. Chi-square test for goodness of fit was used to verify agreement with Hardy-Weinberg equilibrium (HWE) using Fisher's exact test. Comparison of discrete variables was performed using the Chi-square test analysis or Fisher's exact test. Comparison of continuous variables between the two study groups was performed using the Student's t-test. Multivariate logistic regression analysis was performed to determine the independent association of CYP gene polymorphisms with clopidogrel resistance. Odds ratios (ORs) were calculated with 95% confidence intervals (CIs) for the relative risk of clopidogrel resistance related to genotypes. Statistical analysis was performed with SPSS 15.0 (SPSS Inc, Chicago, Ill.). All values of P<0.05 were considered statistically significant.

P2Y12 receptor = target: T1, P2Y12 receptor (Homo sapiens, UniProt Q9H244); assay: as above; type: in vivo; conditions: for % inhibition of platelet activity: mean ± SD; for Rate of clopidogrel resistance: subjects with CYP2C19*3 A allele
T1 construct: PRU reports the amount of P2Y12 receptor mediated aggregation; from tissue; host or cells: platelets in blood of patients (VerifyNow P2Y12 system, Accumetrics)
T1 sequence (Q9H244 whole entry): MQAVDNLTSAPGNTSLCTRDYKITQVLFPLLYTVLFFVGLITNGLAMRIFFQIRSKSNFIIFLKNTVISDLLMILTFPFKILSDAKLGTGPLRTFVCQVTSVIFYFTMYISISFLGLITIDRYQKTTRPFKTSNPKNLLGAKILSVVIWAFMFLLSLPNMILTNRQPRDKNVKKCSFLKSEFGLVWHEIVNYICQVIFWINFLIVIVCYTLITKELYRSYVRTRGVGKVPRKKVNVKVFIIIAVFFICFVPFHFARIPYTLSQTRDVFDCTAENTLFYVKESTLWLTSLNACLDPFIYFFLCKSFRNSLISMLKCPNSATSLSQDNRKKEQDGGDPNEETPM
Source text: as §1, §2, §3

[2] = patients following coronary stenting; previous reports; cited from earlier work

Patients on cilostazol, number (percentage of group) ([1]; clopidogrel resistant group (Resistance)): 32 (28.6%)
Patients on cilostazol, number (percentage of group) ([1]; clopidogrel responsive group (No resistance)): 158 (57.5%)
Structure (SMILES): O=C1CCc2cc(OCCCCc3nnnn3C3CCCCC3)ccc2N1 [Cilostazol]

Clopidogrel resistance (percent inhibition <20%), proportion of patients (P2Y12 receptor; 387 CAD patients with DES insertion, 112 patients): 28.9%
% inhibition of platelet activity (P2Y12 receptor; CYP1A1 rs1048943, codominant, genotype AA (211)): 32.5 ± 22.3%
% inhibition of platelet activity (P2Y12 receptor; CYP1A1 rs1048943, codominant, genotype AG (153)): 37.7 ± 24.2%
% inhibition of platelet activity (P2Y12 receptor; CYP1A1 rs1048943, codominant, genotype GG (20)): 38.7 ± 24.4%
% inhibition of platelet activity (P2Y12 receptor; CYP1A1 rs1048943, dominant, genotype AA (210)): 32.5 ± 22.3%
% inhibition of platelet activity (P2Y12 receptor; CYP1A1 rs1048943, dominant, genotype AG/GG (170)): 37.8 ± 24.2%
% inhibition of platelet activity (P2Y12 receptor; CYP1A1 rs1048943, recessive, genotype AA/AG (361)): 34.7 ± 23.2%
% inhibition of platelet activity (P2Y12 receptor; CYP1A1 rs1048943, recessive, genotype GG (19)): 38.7 ± 24.4%
% inhibition of platelet activity (P2Y12 receptor; CYP2C19*2 rs4244285, codominant, genotype AA (39)): 30.9 ± 21.7%
% inhibition of platelet activity (P2Y12 receptor; CYP2C19*2 rs4244285, codominant, genotype GA (133)): 32.5 ± 21.6%
% inhibition of platelet activity (P2Y12 receptor; CYP2C19*2 rs4244285, codominant, genotype GG (210)): 37.2 ± 24.5%
% inhibition of platelet activity (P2Y12 receptor; CYP2C19*2 rs4244285, dominant, genotype GA/AA (172)): 32.1 ± 21.6%
% inhibition of platelet activity (P2Y12 receptor; CYP2C19*2 rs4244285, dominant, genotype GG (210)): 37.2 ± 24.5%
% inhibition of platelet activity (P2Y12 receptor; CYP2C19*2 rs4244285, recessive, genotype AA (39)): 30.9 ± 21.7%
% inhibition of platelet activity (P2Y12 receptor; CYP2C19*2 rs4244285, recessive, genotype GG/GA (343)): 35.3 ± 23.5%
% inhibition of platelet activity (P2Y12 receptor; CYP2C19*3 rs4986893, codominant, genotype AA (2)): 17.0 ± 24.0%
% inhibition of platelet activity (P2Y12 receptor; CYP2C19*3 rs4986893, codominant, genotype GA (68)): 24.9 ± 20.1%
% inhibition of platelet activity (P2Y12 receptor; CYP2C19*3 rs4986893, codominant, genotype GG (316)): 36.9 ± 23.4%
% inhibition of platelet activity (P2Y12 receptor; CYP2C19*3 rs4986893, dominant, genotype GA/AA (70)): 24.6 ± 20.0%
% inhibition of platelet activity (P2Y12 receptor; CYP2C19*3 rs4986893, dominant, genotype GG (316)): 36.9 ± 23.4%
% inhibition of platelet activity (P2Y12 receptor; CYP2C19*3 rs4986893, recessive, genotype AA (2)): 17.0 ± 24.0%
% inhibition of platelet activity (P2Y12 receptor; CYP2C19*3 rs4986893, recessive, genotype GG/GA (384)): 34.8 ± 23.3%
Rate of clopidogrel resistance (P2Y12 receptor; dual regimen therapy (aspirin plus clopidogrel)): 57.6%
Rate of clopidogrel resistance (P2Y12 receptor; triple regimen therapy (aspirin plus clopidogrel plus cilostazol)): 37.1%
Structure (SMILES): COC(=O)[C@H](c1ccccc1Cl)N1CCc2sccc2C1 [clopidogrel, (+)-(S)-methyl 2-(2-chlorophenyl)-2-(6,7-dihydrothieno[3,2-c]pyridin-5(4H)-yl)acetate]
Prevalence of clopidogrel nonresponsiveness [2]: 5-44%
